Consider 2 compounds from patent US20130225641A1, “ANTICANCER COMPOUNDS AND PREPARATION METHODS THEREOF” (priority 2010, published 2013).

SMILES strings stand for the structures.

One data set deals with AU-565. Nature of the data set: MTT cytotoxicity, AU-565. The data set is classed as cell-based. The following applies: Homo sapiens, AU565, AU-565, Breast, 72 hrs, read-out: LC50 (the source's name). On the procedure:
The cytotoxicity of ZTP and ZTQ was analyzed by using human tumor cell lines. Human tumor cell lines were purchased from ATCC and NCI, and cultured in DMEM medium containing 10% FBS at 37° C. in 5% CO2 in an incubator. The cells grown to confluence were used for cytotoxicity analysis. The cells were digested with trypsin, washed with the culture medium, and then counted. 33 tumor cell lines were cultured. The cells were seeded at a density of 3000-6000 cells/well in a 96-well plate and incubated for 16-24 hrs. Then, various concentrations of ZTP or ZTQ dissolved in DMSO were added, and cultured for 72 hrs. The drug-treated cells and control cells were analyzed by MTT.

Data set [1] is described as follows: Side effects in tumor transplanted nude mice. The data set is classed as in vivo, nude mice (nu/nu). The settings on record: during treatment. On the procedure:
T-cell deficient nude mice (nu/nu) of 6 weeks old were purchased from Charles River Laboratory, and housed and treated in a sterile environment following Institutional Animal Care & Use Committee Program. 48 mice were respectively subcutaneously inoculated on ribbed belly with 5×10^6 human liver cancer cells (HepG3B), human lung caner cells (NCI-H23), and human colon cancer cells (HCT-116) suspended in 0.2 ml HBSS/matrigel (50:50, V/V). When the tumor grew to have an average diameter of 7-8 mm and a volume of about 100-200 mm^3, 24 mice were picked up, and assigned to treatment groups (16 animals/2 groups), and a control group (8 animals). The 2 treatment groups were administered with the compounds ZTP and ZTQ dissolved in 15% Captsol respectively at a dose of 30 mg/kg and 60 mg/kg, and the control group only received an excipient (15% Captsol).
The dose schedule of the test compounds in the tumor transplanted nude mice was as follows: the compounds ZTP and ZTQ dissolved in 15% Captsol were daily orally administered as a 200 μl solution containing 0.75 mg of ZTP and 1.5 mg of ZTQ for 5 days/week over 3 consecutive weeks, followed by one-week break; and the control group was only administered with 200 μl of the placebo (15% Captsol) for 3 weeks, followed by 1 week of break. The two groups of animals were housed separately, and allowed to free access to food.

For the compound `CNC(=O)c1cc(Sc2ccc(NC(=S)Nc3ccc(Cl)c(C(F)(F)F)c3)cc2)ccn1` [ZTQ, N-[4-chloro-3-(trifluoromethyl)phenyl]-[4-(N-methyl-formamide)(4-pyridylthio)phenyl]-thiourea], the CC50 with AU-565 was found to be 1370 nM. Further, the “side effect, including the change in body weight” value in data set [1] was “no obvious side effect”.
Regarding `CNC(=O)c1cc(Oc2ccc(NC(=S)Nc3ccc(Cl)c(C(F)(F)F)c3)cc2)ccn1` [ZTP, N-[4-chloro-3-(trifluoromethyl)phenyl]-[4-(N-methyl-formamide)(4-pyridyloxy)phenyl]-thiourea], the CC50 in the data set with AU-565 worked out at 1890 nM.
